This note sets out measurements from patent publication US11655246B2, “Aminothiazole compounds as inhibitors of CTPS1” (STEP PHARMA S.A.S., priority 2017, dated 2023).

SMILES strings stand for the structures. Counter-ions that a name gives are not always drawn.

In this test the target is T1, human CTPS1 (Homo sapiens, UniProt P17812).
T1 construct: purchased Proteros biostructures GmbH
T1 sequence (P17812 1-591): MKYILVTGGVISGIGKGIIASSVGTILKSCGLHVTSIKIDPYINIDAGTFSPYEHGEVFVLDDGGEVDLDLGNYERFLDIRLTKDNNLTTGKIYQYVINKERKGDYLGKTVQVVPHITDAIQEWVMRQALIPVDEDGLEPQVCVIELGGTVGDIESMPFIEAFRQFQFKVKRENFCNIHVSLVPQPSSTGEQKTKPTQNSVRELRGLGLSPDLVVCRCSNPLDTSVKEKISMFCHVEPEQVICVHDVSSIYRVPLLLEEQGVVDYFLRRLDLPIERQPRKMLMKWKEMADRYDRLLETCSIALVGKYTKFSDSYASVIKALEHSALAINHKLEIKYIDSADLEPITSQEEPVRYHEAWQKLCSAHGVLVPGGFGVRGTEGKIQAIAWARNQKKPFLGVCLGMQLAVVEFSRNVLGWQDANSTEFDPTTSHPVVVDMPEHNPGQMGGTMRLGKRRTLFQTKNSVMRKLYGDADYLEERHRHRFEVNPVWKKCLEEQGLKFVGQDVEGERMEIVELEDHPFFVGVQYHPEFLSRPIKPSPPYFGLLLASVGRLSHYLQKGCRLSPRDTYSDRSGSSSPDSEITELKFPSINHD
Put plainly: Human CTPS1 enzyme inhibition (ADP-Glo Max assay). It counts as biochemical. The conditions noted are these: Table 18, additional potency data, 25° C., read-out: CTPS1 (Human CTPS1 Enzyme Inhibition data grouped by potency range). The method, boiled down: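 ADP-Glo Max luminescence detection of ATP-to-ADP conversion by the enzyme, in 50 mM Tris, 10 mM MgCl2, 0.01% Tween-20, pH 8.0, with 2 mM L-cysteine added fresh. Enzyme preincubated with compound 10 minutes at 25° C. Percentage inhibition calculated per compound concentration.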
(ADP-Glo first removes unused ATP, then detects ADP through luciferase.)
As to `COC(C(=O)Nc1ccc(-c2cncc(OC(C)C)n2)cc1)c1csc(NS(=O)(=O)C2CC2)n1` (centres unmarked) [T411, 2-(2-(cyclopropanesulfonamido)thiazol-4-yl)-N-(4-(6-isopropoxypyrazin-2-yl)phenyl)-2-methoxyacetamide], the IC50 was below 100 nM.
`NC(C(=O)Nc1ccc(-c2cncc(C(F)(F)F)n2)cn1)c1csc(NS(=O)(=O)C2CC2)n1` (centres unmarked) [T417, 2-Amino-2-(2-(cyclopropanesulfonamido)thiazol-4-yl)-N-(5-(6-(trifluoromethyl)pyrazin-2-yl)pyridin-2-yl)acetamide hydrochloride]: the IC50 fell in the range of 100 to 1000 nM.
As to `NC(C(=O)Nc1ccc(-c2cncc(C(F)(F)F)n2)cc1F)c1csc(NS(=O)(=O)C2CC2)n1` (centres unmarked) [T418, 2-Amino-2-(2-(cyclopropanesulfonamido)thiazol-4-yl)-N-(2-fluoro-4-(6-(trifluoromethyl)pyrazin-2-yl)phenyl)acetamide], the IC50 was in the range of 100 to 1000 nM.
For `CCOc1cncc(-c2ccc(NC(=O)C(N)c3csc(NS(=O)(=O)C4CC4)n3)c(F)c2)n1` (centres unmarked) [T419, 2-Amino-2-(2-(cyclopropanesulfonamido)thiazol-4-yl)-N-(4-(6-ethoxypyrazin-2-yl)-2-fluorophenyl)acetamide hydrochloride], the IC50 was below 100 nM.
Then `CN(C)C(C(=O)Nc1ccc(-c2cncc(C(F)(F)F)n2)cc1F)c1csc(NS(=O)(=O)C2CC2)n1` (centres unmarked) [T420, 2-(2-(Cyclopropanesulfonamido)thiazol-4-yl)-2-(dimethylamino)-N-(2-fluoro-4-(6-(trifluoromethyl)pyrazin-2-yl)phenyl)acetamide], with below 100 nM.
For `CCOc1cncc(-c2ccc(NC(=O)C(c3csc(NS(=O)(=O)C4CC4)n3)N(C)C)c(F)c2)n1` (centres unmarked) [T421, 2-(2-(Cyclopropanesulfonamido)thiazol-4-yl)-2-(dimethylamino)-N-(4-(6-ethoxypyrazin-2-yl)-2-fluorophenyl)acetamide], the IC50 is below 100 nM.
As for `CCOc1cncc(-c2ccc(NC(=O)C(C)(C)c3csc(NS(=O)(=O)CC4CC4)n3)c(F)c2)n1` [T433], the IC50 is below 100 nM.
On to `CCOc1cncc(-c2cnc(NC(=O)C(CCOC)c3csc(NS(=O)(=O)C4CC4)n3)c(F)c2)n1` (centres unmarked) [T435], for which the IC50 is below 100 nM.
With `CCOc1cncc(-c2ccc(NC(=O)C(CCOC)c3csc(NS(=O)(=O)C4CC4)n3)nc2)n1` (centres unmarked) [T436], the IC50 is below 100 nM.
Turning to `COCCC(C(=O)Nc1ccc(-c2cncc(C(F)(F)F)n2)cc1)c1csc(NS(=O)(=O)C2CC2)n1` (centres unmarked) [T437], the IC50 was below 100 nM.
The same measure for `CCOc1cncc(-c2cnc(NC(=O)C(CC)c3csc(NS(=O)(=O)C4CC4)n3)c(C)c2)n1` (centres unmarked) [T438]: below 100 nM.
With `CCOc1cncc(-c2ccc(NC(=O)C(CC)c3csc(NS(=O)(=O)C4CC4)n3)c(Cl)c2)n1` (centres unmarked) [T439], the IC50 was below 100 nM.
In the case of `CCOc1cncc(-c2ccc(NC(=O)C(CC)c3csc(NS(=O)(=O)C4CC4)n3)c(C#N)c2)n1` (centres unmarked) [T440], the IC50 is below 100 nM.
On to `CCOc1cncc(-c2ccc(NC(=O)C(CC)c3csc(NS(=O)(=O)C4CC4)n3)c(C)c2)n1` (centres unmarked) [T441], for which the IC50 is below 100 nM.
Then `CCOc1cncc(-c2ccc(NC(=O)C(CC)c3csc(NS(=O)(=O)C4CC4)n3)c(OC(F)(F)F)c2)n1` (centres unmarked) [T442], with below 100 nM; and `CCOc1cncc(-c2ccc(NC(=O)C(CC)c3csc(NS(=O)(=O)C4CC4)n3)c(OC)c2)n1` (centres unmarked) [T443], with below 100 nM; and `CCNc1cncc(-c2ccc(NC(=O)C(CC)c3csc(NS(=O)(=O)C4CC4)n3)cc2)n1` (centres unmarked) [T444, 2-(2-(Cyclopropanesulfonamido)thiazol-4-yl)-N-(4-(6-(ethylamino)pyrazin-2-yl)phenyl)butanamide], with below 100 nM.
Consider `CCOc1cncc(-c2cnc(NC(=O)C(OC)c3csc(NS(=O)(=O)C4CC4)n3)c(F)c2)n1` (centres unmarked) [T445], for which the IC50 is below 100 nM.
Consider `CCOc1cncc(-c2ccc(NC(=O)C(OC)c3csc(NS(=O)(=O)C4CC4)n3)nc2)n1` (centres unmarked) [T446], for which the IC50 is below 100 nM.
Regarding `COC(C(=O)Nc1ccc(-c2cncc(F)c2)cc1C(F)(F)F)c1csc(NS(=O)(=O)C2CC2)n1` (centres unmarked) [T447], the IC50 was below 100 nM.
In the case of `COC(C(=O)Nc1ccc(-c2cncc(C(F)(F)F)c2)cc1F)c1csc(NS(=O)(=O)C2CC2)n1` (centres unmarked) [T448], the IC50 is below 100 nM.
For `CCOc1cncc(-c2ccc(NC(=O)C(OC)c3csc(NS(=O)(=O)C4CC4)n3)c(C(F)(F)F)c2)n1` (centres unmarked) [T449], the IC50 was below 100 nM.
Regarding `CCOc1cncc(-c2ccc(NC(=O)C(OC)c3csc(NS(=O)(=O)C4CC4)n3)c(Cl)c2)n1` (centres unmarked) [T450], the IC50 is below 100 nM.
The same measure for `CCOc1cncc(-c2ccc(NC(=O)C(OC)c3csc(NS(=O)(=O)C4CC4)n3)c(C#N)c2)n1` (centres unmarked) [T451]: below 100 nM.
In the case of `COC(C(=O)Nc1ccc(-c2cncc(C(F)(F)F)n2)cc1F)c1csc(NS(C)(=O)=O)n1` (centres unmarked) [T452], the IC50 was below 100 nM.
On to `CCOc1cncc(-c2cc(F)c(NC(=O)C(OC)c3csc(NS(=O)(=O)C4CC4)n3)c(F)c2)n1` (centres unmarked) [T453], for which the IC50 was below 100 nM.
Take `CCOc1cncc(-c2ccc(NC(=O)C(OC)c3csc(NS(=O)(=O)C4CC4)n3)c(OC(F)(F)F)c2)n1` (centres unmarked) [T454]: the IC50 is below 100 nM.
Then `CCOc1cncc(-c2ccc(NC(=O)C(OC)c3csc(NS(C)(=O)=O)n3)cc2)n1` (centres unmarked) [T455], with below 100 nM; and `COc1cncc(-c2ccc(N3CCC(c4csc(NS(=O)(=O)C5CC5)n4)C3=O)cc2)c1` (centres unmarked) [T463], with 100 to 1000 nM.
